Tested on: Jatropha curcas elongated shoots
Experiment: in vitro rooting of elongated shoots
Type: cell-based
Details: 4.9 μM in half strength Murashige & Skoog Basal Medium

O=C(O)CCCc1c[nH]c2ccccc12 [IBA, Indole-3-butyric acid]
root formation: well-formed roots
